Results from patent publication US20220096529A1, “2-HYDROXYPROPYL-BETA-CYCLODEXTRIN (HPBETACD) FOR USE IN THE TREATMENT OF BREAST CANCER” (UNIVERSITY OF THE WITWATERSRAND, JOHANNESBURG, priority 2019, published 2022).
Values joined by “and” are separate entries in the source; they are usually repeats but may differ in a detail not shown here. Equal values may be shown once. “Also recorded” adds a separate entry of the source.

Tests used:
MCF7 cells [1] = experiment: MTT growth inhibition assay; assay type: cell-based, human
Method: (§1) Cells were cultured in appropriate medium supplemented with 10% FCS, penicillin (100 U/ml), and streptomycin (100 μg/ml) (Gibco) at 5% CO2 in a 37° C. incubator.
(§2) Four different cell lines were used MCF7 (ER+). MDA-MB-231 (ER−), MRC-5 (Lung Fibroblasts) and HEK-293 (Embryonic kidney). MRC-5 and/or HEK-293 were used as control cell lines depending on availability.
(§3) In order to determine whether HPβCD has the ability to induce cancer cell death a primary screening using an MTT assay was performed. Three different time points 24 hrs.

MDA-MB-231 cells [2] = experiment: MTT growth inhibition assay; assay type: cell-based, human
Method: as §1, §2, §3

MDA-MB-231 tumours = experiment: Hematoxylin and eosin staining of xenograft tumours; assay type: in vivo, mice
Source text: Hematoxylin and cosin staining of mice was undertaken in untreated, intermediate and late stage MDA-MB-231 mice as is shown in FIG. 36.
The individual cells are markedly pleomorphic and have raised nuclear to cytoplasmic ratios. The neoplastic cells have irregular nuclear borders and the cells have vesicular chromatic with one to multiple prominent nucleoli. Brisk mitotic activity is evident. Areas of perineural and lymphovascular invasion are however, not documented.

MCF7 cells [3] = experiment: Caspase 3/7 assay; assay type: cell-based, human; conditions: MCF7, 10 mM HPβCD
Method: (§4) The final step in apoptosis following the intrinsic pathway is the activation of executioner caspases like caspase 3 and caspase 7 […]. Therefore, to confirm that cell death was due to the mitochondrial mediated pathway of apoptosis a Caspase 3/7 assay was conducted. Caspases are activated in response to a myriad of cellular death stimuli and they dismantle the cell. Caspase 3 and caspase 7 contribute to the majority of proteolytic cleavage occurring in apoptosis. As a final step to confirm and validate apoptosis via the mitochondrial intrinsic pathway, the Caspase 3/7 assay was conducted on three cell lines: MCF7, MDA-MB-231 & HEK-293. HPβCD and positive (40 μM PL) were treated for 24 hrs. The percentage of dead/apoptotic cells are clearly indicated in specific corners of each quadrants in the above plots.

MDA-MB-231 cells [4] = experiment: Caspase 3/7 assay; assay type: cell-based, human; conditions: MDA-MB-231, 10 mM HPβCD, 24 hrs
Method: as §4

HEK-293 cells = experiment: Caspase 3/7 assay; assay type: cell-based, human; conditions: HEK-293, 10 mM HPβCD, 24 hrs
Method: as §4

[5] = test system: SREBP-1 in MDA-MB-231 cells; experiment: Western blotting for SREBP-1; assay type: cell-based, human; conditions: MDA-MB-231, 10 mM HPβCD, 24 hrs
Method: (§5) In order to delve in to more detailed mechanisms of cholesterol depletion a western blotting analysis was conducted for SREBP-1 protein, which is a known transcription factor involved in cholesterol homeostasis. Lysates from MCF7, MDA-MB-231 and MRC-5 cells were used. 10 mM HPβCD was treated for 24 hrs. SREBPs are key elements responsible for the gene expression of vital enzymes involved in fatty acid synthesis which includes SREBP 1 and SREBP 2. […] In order to investigate this characteristic feature of SREBPs a western blot analysis was conducted to see if HPβCD treatment does alter SREBP levels.

SREBP-1 in MRC-5 cells = experiment: Western blotting for SREBP-1; assay type: cell-based, human; conditions: MRC-5, 10 mM HPβCD, 24 hrs
Method: as §5

SREBP-1 in MCF7 cells = experiment: Western blotting for SREBP-1; assay type: cell-based, human; conditions: MCF7, 10 mM HPβCD, 24 hrs
Method: as §5

MCF7 cells [6] = experiment: RT2 Profiler PCR Array Human Lipoprotein Signaling & Cholesterol Metabolism; assay type: cell-based; conditions: MCF7, majority of genes
Source text: (§6) PCR (polymerase chain reaction) arrays were run to identify gene expression changes in cancer cells after treatment with HPβCD. The differentially expressed genes along with their significance for cancer, some genes were selected for further drug-protein interaction studies.
(§7) Results from RT^2 Profiler™ PCR Array Human Lipoprotein Signaling & Cholesterol Metabolism (MCF7 and MDA-MB-231) are shown in FIG. 38.

MDA-MB-231 cells [7] = experiment: as above; assay type: cell-based
Source text: as §6, §7

[8] = late stage treated mice, one value per case

Substance: 2-hydroxypropyl-β-cyclodextrin [HPβCD]
- growth inhibition (MCF7 cells [1]; MCF7, 10 mM HPβCD, all three time points (24, 48, 72 hrs)): ~45%
- IC50 (MCF7 cells [1]; MCF7, 24 hrs): 11.1 mM
- IC50 (MCF7 cells [1]; MCF7, 48 hrs): 9.82 mM
- IC50 (MCF7 cells [1]; MCF7, 72 hrs): 7.45 mM
- growth inhibition (MDA-MB-231 cells [2]; MDA-MB-231, 10 mM HPβCD, all three time points): ~45%
- IC50 (MDA-MB-231 cells [2]; MDA-MB-231, 24 hrs): 12.3 mM
- IC50 (MDA-MB-231 cells [2]; MDA-MB-231, 48 hrs): 11.2 mM
- IC50 (MDA-MB-231 cells [2]; MDA-MB-231, 72 hrs): 8.56 mM
- necrosis, share of the total tumour examined (MDA-MB-231 tumours; intermediate group): 6-10%
- MITOSES (MDA-MB-231 tumours; intermediate stage treated mice, one value per case): 70 Atypical and 59 Atypical and 67 Atypical
- NECROSIS (MDA-MB-231 tumours; intermediate stage treated mice, one value per case (INTM 13, 31, 32)): Focal necrosis; also recorded: Occasional; also recorded: Multiple pockets
- apoptotic cells compared to the intermediate group (MDA-MB-231 tumours; late group): 2.9 times
- increase in number of apoptotic cells compared to the untreated group (MDA-MB-231 tumours; late group): ~1.7 fold
- mitotic activity lower than in the other two groups (MDA-MB-231 tumours; late group): approximately 1.1 times
- increase in necrosis compared to the untreated group (MDA-MB-231 tumours; late group, case Late 12): ~4 fold
- necrosis, share of the tissue examined (MDA-MB-231 tumours; late group, case Late 12): up to 20%
- APOPTOSIS/ 10 HPF (MDA-MB-231 tumours; [8]): 21 and 30 and 39 and 32 and 27
- EPID/ MUSCLE INV. (MDA-MB-231 tumours; [8]): No muscle present; also recorded: No muscle or epidermis; also recorded: Muscle invasion
- MITOSES (MDA-MB-231 tumours; [8]): 60 and 65 and 57 and 59 and 50
- NECROSIS (MDA-MB-231 tumours; late stage treated mice, one value per case (LATE 8 (1), 8 (2), 11, 12, 14)): Necrosis seen
- total apoptosis compared to untreated (MCF7 cells [3]): almost two times more
- Total Apoptotic (caspase 3/7) (MCF7 cells [3]; 24 hrs): 12.5%
- Total Apoptotic (caspase 3/7) (MDA-MB-231 cells [4]): 48.75%
- Total Live (caspase 3/7) (HEK-293 cells): 66.75%
- SREBP-1 protein level compared to untreated lysate [5]: about two and a half times less activity of SREBP-1
- SREBP-1 activity compared to untreated lysate (SREBP-1 in MRC-5 cells): remained equal
- SREBP-1 protein level compared to untreated lysate (SREBP-1 in MCF7 cells): about five times less activity of SREBP-1
- genes involved in cholesterol related pathways (MCF7 cells [6]): downregulated
- ABCA1 gene expression (MDA-MB-231 cells [7]; MDA-MB-231, HPβCD treated): upregulation
- genes involved in cholesterol related pathways (MDA-MB-231 cells [7]; MDA-MB-231, majority of genes): downregulated
